Experimental findings from patent publication US20120122816A1, “COMPOSITIONS AND METHODS FOR ORGAN PRESERVATION” (Resolvyx Pharmaceuticals, Inc., priority 2009, published 2012) are described below.

Structures are written as SMILES. Like-named read-outs stand apart in the source and are kept apart here.

One data set relates to COX-2 gene expression. Briefly: Il-1β induced COX-2 promoter luciferase reporter assay in ARPE-19 cells. The format is cell-based. The note with it: FIG. 3. Here is the method:
(§1) The effects of compounds of the invention on apoptotic cell death induced by oxidative stress and on Il-1β induced pro-inflammatory COX-2 gene expression in ARPE-19 cells was measured using the following protocol.
(§2) 72 h grown cells in 6 well plates were serum starved for 8 h, and then oxidative stress was induced with TNF-α/H2O2 (600 μM) for 16 h. Cells were incubated with different concentrations of compound X, compound Z, and compound 48b. Apoptotic cell death was scored by Hoechst positive cells. COX-2 (−830) promoter construct, linked to luciferase reporter gene, was used to transfect ARPE-19 cells by Fugene-6. A β-galactosidase plasmid was co-transfected as transfection control. Transfected cells were serum starved, induced by Il-1β, and incubated with different concentrations of compound X, compound Z, and compound 48b. Luciferase assays were performed using luciferin as substrate.
Background: In a reporter assay the amount or activity of a reporter protein is the signal.

In another data set the test system is Rats. Briefly: Protection against ischemia reperfusion injury (coronary artery occlusion and reperfusion). In kind it is in vivo, rat. Here is the method:
The ability of compound X, administered before reperfusion, to limit myocardial infarct size (IS) was measured using the following protocol.
Rats were anesthetized with ketamine and xylazine and underwent 30 min of coronary artery occlusion and 4 h of reperfusion. Just before reperfusion rats received compound X i.v. (0.03 mg/kg, 0.1 mg/kg or 0.3 mg/kg) or vehicle alone (control). Area at risk (AR) was assessed by blue dye and IS by triphenyltetrazoliumchloride (TTC) staining.

For data set [1], the system named is H9C2 cells. Briefly: Protection against hypoxia-reoxygenation injury (trypan blue uptake, MTT). In kind it is cell-based, rat.
The subject of data set [2] is H9C2 cells. Described as above. The format is cell-based, rat. Here is the method: The ability of compound X to protect cardiomyocytes against hypoxia-reoxygenation injury was measured using the following protocol.
H9C2 cells derived from embryonic rat heart tissue were incubated with compound X (0, 1, 10, 100, or 1000 nM). Cells were subjected to 16 h of hypoxia and 2 h of reoxygenation. Cell death was assessed by trypan blue (TB) uptake and cell viability by MTT (3-(4,5-dimethylthiazol-2-yl)-2,5-diphenyl tetrazolium bromide) assay.
The source holds these as a separate data set.

The test system of a further data set is ARPE-19 cells. Briefly: Oxidative stress-induced apoptosis (TNF-α/H2O2), Hoechst positive cells. The note with it: for oxidative stress-induced apoptosis, concentration dependence: 10, 30 and 50 nM; for inhibition at 0.03 µM / inhibition at 0.05 µM: Homo sapiens, ARPE-19; for inhibition at 0.05 µM: 50 nM compound. The format is cell-based. On the procedure: as §1, §2

Where [3] appears, read: i.v. 0.03-0.3 mg/kg, anesthetized rats.
Where [4] appears, read: 30 nM compound, TNF-α/H2O2 (600 μM) 16 h, FIG. 1, read-out: inhibition of oxidative stress-induced apoptosis.
[5] abbreviates: TNF-α/H2O2 (600 μM) 16 h, FIG. 1.

In the case of `CC[C@@H](O)/C=C/C=C\C[C@@H](O)/C=C/C=C/C=C\[C@@H](O)CCCC(=O)O` [Compound X], in the data set with COX-2 gene expression, the “expression of pro-inflammatory COX-2” value was “inhibited”. In the data set with Rats (i.v. 0.03, 0.1 or 0.3 mg/kg just before reperfusion, 30 min occlusion, 4 h reperfusion, FIG. 4), the “myocardial infarct size (IS)” value was “dose-dependently limited IS”. Besides, the heart rate entry in the data set on Rats (setting [3]) is listed as “did not affect”. Also, the mean blood pressure result in the data set on Rats (setting [3]) is on record as “did not affect”. Moreover, the apoptosis result with H9C2 cells [1] is reported as “decreased apoptosis”. For the same molecule, the “TB (%) (trypan blue positive cells)” value in the data set on H9C2 cells [2] (1.0 nM, 16 h hypoxia, 2 h reoxygenation) amounted to 35.5 ± 0.4%; in the data set with H9C2 cells [2] (10 nM, 16 h hypoxia, 2 h reoxygenation), 30.3 ± 0.4%; with H9C2 cells [2] (100 nM, 16 h hypoxia, 2 h reoxygenation) it was 23.8 ± 0.9%; in the data set on H9C2 cells [2] (1000 nM, 16 h hypoxia, 2 h reoxygenation) it was 24.1 ± 0.3%. The viability – broadly, a read-out of living cells in per cent, often relative to untreated cells – at 0.001 µM in the data set with H9C2 cells [2] (Rattus norvegicus, H9c2, 1.0 nM, 16 h hypoxia, 2 h reoxygenation, read-out: MTT (%) (cell viability)) was 50.1 ± 0.8%. In addition, the viability at 0.01 µM with H9C2 cells [2] (Rattus norvegicus, H9c2, 10 nM, 16 h hypoxia, 2 h reoxygenation, read-out: MTT (%) (cell viability)) came to 62.6 ± 1.2%. Further, the viability at 0.1 µM in the data set on H9C2 cells [2] (Rattus norvegicus, H9c2, 100 nM, 16 h hypoxia, 2 h reoxygenation, read-out: MTT (%) (cell viability)) is 74.6 ± 0.9%. The viability at 1 µM with H9C2 cells [2] (Rattus norvegicus, H9c2, 1000 nM, 16 h hypoxia, 2 h reoxygenation, read-out: MTT (%) (cell viability)) amounted to 70.5 ± 0.5%. The “concentration of maximal effect” value with H9C2 cells [2] (tested 1-1000 nM) amounted to 100 nM. Besides, the “oxidative stress-induced apoptosis, concentration dependence” value in the data set on ARPE-19 cells is recorded as “inhibit oxidative stress-induced apoptosis in a concentration dependent manner”. In addition, the inhibition – broadly, the share of the control response that was lost under treatment – at 0.03 µM with ARPE-19 cells (setting [4]) was about 20%; in the data set with ARPE-19 cells (each compound at 30 nM, plus compound 48b, FIG. 2, read-out: combined inhibition of apoptosis upon addition of compound 48b) it was about 60%. In the data set on ARPE-19 cells (setting [5]), this molecule came in with an inhibition at 0.05 µM of about 30%.

As to `CC/C=C\C[C@H](O)\C=C/C=C/C=C/[C@H](O)C/C=C\C/C=C\CCC(=O)O` [Compound 48b], the “expression of pro-inflammatory COX-2” value with COX-2 gene expression is recorded as “stronger inhibition”. For the same molecule, the “oxidative stress-induced apoptosis, concentration dependence” value in the data set on ARPE-19 cells was “inhibit oxidative stress-induced apoptosis in a concentration dependent manner”. For the same molecule, in the data set on ARPE-19 cells (setting [4]), the inhibition at 0.03 µM is about 45%. Also, the inhibition at 0.05 µM with ARPE-19 cells (setting [5]) was about 80%.
